Laboratory results published in patent US5300639A, “Thiazolo [5,4-b]azepine compounds” (Takeda Chemical Industries, Ltd., priority 1992, dated 1994).
Where a name gives a salt, the structure may show the parent alone.

Tested on: Cerebral blood flow after complete cerebral ischemia-reperfusion in dogs
Assay: Effect on cerebral blood flow and cortical water content after complete cerebral ischemia-reperfusion in dogs
Type: in vivo, dog (adult mongrel)
Details: for Decrease rate of γ-CBF 3 hours after reperfusion: control 44.3±1.4%
Experimental: Fourteen adult mongrel dogs were anesthetized with a combination of α-chloralose and urethane. Polyethylene catheters were introduced into the femoral artery and vein. Systemic blood pressure was measured through the cannulated femoral artery with an electromanometer. Heart rate was recorded with a cardiotachometer. The regional cerebral blood flow (γ-CBF) was measured using a thermal diffusion flow probe incorporating a Peltier stack. The animals were subjected to positive-pressure ventilation with room-air. A thoracotomy was performed in the third right intercostal space. […] Occlusion was maintained for 10 minutes. After reperfusion, all physiological variables were continuously recorded for 3 hours. After 3 hours of reperfusion, animals were sacrificed. The regional cerebral cortex was removed, weighed and then dried (48 hours at 120° C.) to remove water content. The test drugs were given intravenously 5 minutes before ischemia.

SMILES: Cc1ccc(-c2nc3c(s2)NCCCC3)cc1N [Example 106, 2-(3-Amino-4-methylphenyl)-5,6,7,8-tetrahydro-4H-thiazolo-[5,4-b]azepine dihydrochloride]
- Effect on decrease in γ-CBF (1 mg/kg, i.v., 3 hours after reperfusion): significantly inhibited a decrease in γ-CBF 3 hours after reperfusion
- Water Content (%) of cerebral cortex (1 mg/kg, i.v., 3 hours after reperfusion, control 79.81 ± 0.21): 78.22 ± 0.08%
- Decrease rate of γ-CBF 3 hours after reperfusion (1 mg/kg, i.v.): 18.0±3.1%
- Effect on post-ischemia hypoperfusion in γ-CBF (10 mg/kg, i.v.): almost completely inhibited the post-ischemia hypoperfusion in γ-CBF
- Decrease rate of γ-CBF 3 hours after reperfusion (10 mg/kg, i.v.): 6.5±2.5%
- Effect on increase in water content in the cerebral cortex (3 hours after reperfusion): significantly inhibited the increase in water content in the cerebral cortex 3 hours after reperfusion
- Time after reperfusion at which γ-CBF recovered to the pre-occlusion level (i.v., 5 minutes before ischemia): 30 min
- γ-CBF immediately after reperfusion (i.v., 5 minutes before ischemia, vs control group): transiently increased, with reactive hyperemia to the same extent as that of the control group
